Source: publication PMC5120204, “Identification of an orally active small-molecule PTHR1 agonist for the treatment of hypoparathyroidism” (Nature Communications, 2016)
Where two headings read alike, the source gives them in different places.

Key:
rat PTHR2 = biological target: T1, rat PTHR2 (Rattus norvegicus, UniProt P70555); assay: cAMP production assay in COS-7 cells expressing rat PTHR2; format: cell-based
T1 construct: expressed in transfected cells; host or cells: COS-7 (transient)
Protocol: COS-7 cells (ATCC) were seeded into a 96-well flat-bottomed plate (1.4 × 10^4 cells per 100 μl per well) and incubated overnight. The next day, the COS-7 cells were transfected by adding 10 μl of a mixture of hPTHR1, hPTHR2 or mutant hPTHR1 plasmid, rat PTHR1 or rat PTHR2 plasmid, or empty vector (0.1 μg per well), FuGENE HD Transfection Reagent (0.4 μl per well, Promega), and Opti-MEM I Reduced Serum Medium (10 μl per well, Life Technologies) to each well. […] The plate was placed in a 37 °C constant-temperature water bath for 20 min to allow the reaction to proceed. After incubation, the liquid in the wells was discarded, the wells were washed with the assay medium (100 μl per well), and the plate was frozen on dry ice. Next, 40 μl of 50 mmol l^−1 HCl was added to each well, and the plate was stored in a freezer set at ≤−20 °C. The cAMP concentrations were measured by using a cAMP EIA kit (GE Healthcare). EC50 values were determined from three independent experiments in duplicate by a non-linear regression Emax model (JMP ver.9.0.2, SAS Institute). The geometric mean of the EC50 values obtained in three experiments in duplicate was calculated using Microsoft Office Excel 2007. […]

[1] = Pharmacokinetics in TPTX rats; format: in vivo, rat; conditions: female, Crl:CD(SD), rat, plasma, po
hPTHR1-delNT = biological target: T2, hPTHR1-delNT (Homo sapiens, UniProt Q03431); assay: cAMP production assay in COS-7 cells expressing hPTHR1-delNT; format: cell-based; conditions: COS-7 cells transfected with hPTHR1-delNT
T2 construct: HA + tetraglycine linker (YPYDVPDYA-GGGG); expressed in transfected cells; host or cells: COS-7 (transient)
T2 sequence (Q03431 with tags, fused parts or gaps): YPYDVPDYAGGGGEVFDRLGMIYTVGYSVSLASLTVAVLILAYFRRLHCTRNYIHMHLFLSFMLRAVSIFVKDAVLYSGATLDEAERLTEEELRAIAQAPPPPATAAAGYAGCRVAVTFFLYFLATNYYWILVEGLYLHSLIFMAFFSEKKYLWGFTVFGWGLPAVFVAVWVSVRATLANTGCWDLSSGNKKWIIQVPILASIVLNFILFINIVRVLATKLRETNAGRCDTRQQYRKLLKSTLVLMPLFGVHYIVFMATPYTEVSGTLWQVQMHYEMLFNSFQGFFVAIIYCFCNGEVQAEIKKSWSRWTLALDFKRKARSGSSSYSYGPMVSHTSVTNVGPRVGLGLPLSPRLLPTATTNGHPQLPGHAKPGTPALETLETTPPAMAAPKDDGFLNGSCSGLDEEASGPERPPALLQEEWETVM

TPTX rats = assay: Repeated administration study in TPTX rats, study 1; format: in vivo, rat
Protocol: TPTX was carried out in 6-week-old female Crl:CD (SD) rats (Charles River Laboratories). Rats with serum Ca levels of <8.0 mg dl^−1 at 5 days after surgery were used in the following experiments. The rats were divided into four groups both in study 1 and 2, each with a similar mean value of serum Ca levels and body weight. Sample sizes were determined as described in the above single administration study. To evaluate the calcemic effects of PCO371 and hPTHs, we defined a target therapeutic range for serum Ca of 7.6–11.2 mg dl^−1, which corresponds to the low normal to normal range of serum Ca levels.
TPTX rats were treated twice daily (at around 09:00 and 19:00 hours) orally (vehicle or PCO371 at 1, 3 or 9 mg kg^−1) or subcutaneously [hPTH(1–34) or vehicle at 9 nmol kg^−1] for 4 weeks. Four rats were assigned to sham control, and treated with vehicle for PCO371. Vehicles for PCO371 and hPTH(1–34) were the same as in the OVX rat study. Under isoflurane anaesthesia, jugular vein blood was collected immediately before and at 6 and 10 h (for PCO371) or at 1 and 10 h (for hPTH) after administrations to measure the serum Ca levels on days 1 (the first dosing day), 7, 14, 22 and 29. Urine was collected for 24 h by using metabolic cages on days 29–30, and Ca excretion was calculated from urine volume and Ca level. Under isoflurane anaesthesia, jugular vein blood was collected 10 h after administrations to measure serum 1,25(OH)2D3 levels on Day 29 by using a 1,25(OH)2D3 RIA kit (Fujirebio). Four or five TPTX rats were assigned to each dose group. Serum and urine Ca levels were measured in the same way as in the single-dosing study. In another experiment, TPTX rats were treated subcutaneously once daily with hPTH(1–84) at 9 nmol kg^−1, for 4 weeks. Serum Ca was measured immediately before and at 2, 6 and 10 h after administration on day 1 (the first dosing day), 7, 14, 21 and 28 using the same method as described above. Urine was collected for 24 h by using metabolic cages on days 28 and 29, and Ca excretion was calculated from urine volume and Ca level.

T1 sequence (P70555 25-546): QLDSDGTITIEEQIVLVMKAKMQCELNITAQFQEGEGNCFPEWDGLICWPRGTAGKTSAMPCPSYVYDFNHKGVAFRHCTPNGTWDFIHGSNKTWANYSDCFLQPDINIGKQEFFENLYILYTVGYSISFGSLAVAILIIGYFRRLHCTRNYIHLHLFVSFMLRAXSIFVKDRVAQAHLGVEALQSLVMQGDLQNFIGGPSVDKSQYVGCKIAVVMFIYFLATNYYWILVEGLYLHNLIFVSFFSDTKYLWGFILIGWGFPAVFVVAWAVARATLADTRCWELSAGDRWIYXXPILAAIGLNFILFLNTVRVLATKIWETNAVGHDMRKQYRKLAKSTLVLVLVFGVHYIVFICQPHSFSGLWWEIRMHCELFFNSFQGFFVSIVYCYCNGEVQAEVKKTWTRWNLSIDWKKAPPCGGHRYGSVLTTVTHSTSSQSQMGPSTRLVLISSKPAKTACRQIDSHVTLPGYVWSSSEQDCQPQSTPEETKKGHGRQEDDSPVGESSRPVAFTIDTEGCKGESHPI

Cc1cc(N2C(=O)NC(=O)C2(C)C)cc(C)c1CCS(=O)(=O)N1CCC2(CC1)N=C(c1ccc(OC(F)(F)F)cc1)NC2=O [PCO371, 1-{3,5-dimethyl-4-[2-({4-oxo-2-[4-(trifluoromethoxy)phenyl]-1,3,8-triazaspiro[4.5]dec-1-en-8-yl}sulfonyl)ethyl]phenyl}-5,5-dimethylimidazolidine-2,4-dione]
cAMP production (rat PTHR2): did not stimulate cAMP production | half-life ([1]; p.o. 2 mg kg-1): 6.9 ± 2.3 h | AUC ([1]; p.o. 2 mg kg-1, read-out: AUC): 464 ± 125 ng·h/mL | Cmax ([1]; p.o. 2 mg kg-1, read-out: Cmax): 95.6 ± 84.4 ng/mL | Tmax ([1]; p.o. 2 mg kg-1, read-out: Tmax): 1.4 ± 1 h | half-life ([1]; p.o. 6 mg kg-1): 4.9 ± 0.6 h | AUC ([1]; p.o. 6 mg kg-1, read-out: AUC): 1590 ng·h/mL | Cmax ([1]; p.o. 6 mg kg-1, read-out: Cmax): 216 ± 103 ng/mL | Tmax ([1]; p.o. 6 mg kg-1, read-out: Tmax): 1.3 ± 0.6 h | half-life ([1]; p.o. 18 mg kg-1): 4.7 ± 0.7 h | AUC ([1]; p.o. 18 mg kg-1, read-out: AUC): 9210 ng·h/mL | Cmax ([1]; p.o. 18 mg kg-1, read-out: Cmax): 1630 ng/mL | Tmax ([1]; p.o. 18 mg kg-1, read-out: Tmax): 3.7 ± 3.8 h | EC50 (hPTHR1-delNT): 2500 nM | Serum 1,25(OH)2D3 levels (TPTX rats; 9 mg kg^−1 twice-daily oral, 4 weeks): increased significantly | urinary Ca excretion (TPTX rats; after 4-week treatment, up to 9 mg kg^−1 twice-daily oral): not increased | hypercalcemia (>11.2 mg dl^−1) (TPTX rats; at 0, 6 and 10 h after administrations on days 1, 7, 14, 22 and 29): no hypercalcemia | time serum Ca maintained within the target range after each administration (TPTX rats; twice-daily oral 3 mg kg^−1 or more, 4 weeks): at least 6 h | body weight or general condition vs vehicle-treated rats (TPTX rats; twice-daily oral, 4 weeks): no significant difference | dose that increased serum Ca to within the target therapeutic range (TPTX rats; twice-daily oral, 4 weeks, range 7.6–11.2 mg dl^−1): ≥ 3 mg/kg
